Experimental data published in patent US20230081426A1, “COMPOUNDS AND METHODS FOR KRAS MODULATION AND INDICATIONS THEREFOR” (Plexxikon Inc., priority 2020, published 2023).

What follows are compounds tested against T1, G12D-mutant human KRAS (amino acid residues 1-188) (Homo sapiens, UniProt P01116, G12D) (assay: KRAS Binding Disruption Assay (AlphaScreen; biotinylated KRpep-2d analogue or RAF1-RBD), G12D). Details: KRAS G12D; geometric mean; read-out: KRAS GMean IC50 (uM) MUTATION: G12D.
T1 construct: G12D or G12C-mutant human KRAS (amino acid residues 1-188) with FLAG tag; made in house; host or cells: E. coli
T1 sequence (P01116 1-188 isoform P01116-2 G12D): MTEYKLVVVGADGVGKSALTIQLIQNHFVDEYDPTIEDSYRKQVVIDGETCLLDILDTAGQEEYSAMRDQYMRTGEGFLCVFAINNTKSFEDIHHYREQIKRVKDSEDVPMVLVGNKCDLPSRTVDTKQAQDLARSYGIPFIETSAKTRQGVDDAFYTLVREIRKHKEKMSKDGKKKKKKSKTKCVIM
Method: Compound binding disrupts the interaction of KRpep-2d or RAF1-RBD with KRAS, leading to a decrease in Alpha signal.
All assay components were prepared in 20 mM HEPES (pH 7.5), 100 mM NaCl, 5 mM MgCl2, 0.01% Tween-20, and 0.01% BSA. Biotinylated analogues of KRpep-2d were custom synthesized. The binding disruption assays were performed using 5-20 nM of mutant KRAS and 5-20 nM of either biotinylated KRpep-2d analogue or RAF1-RBD. 19 μL of KRAS protein and 4 μL of biotinylated KRpep-2d or RAF1-RBD were added to the wells of a 384-well plate containing 1 μL of various concentrations of test compound or DMSO vehicle. 16 wells containing KRAS, biotinylated KRpep-2d or RAF1-RBD, and 5% DMSO served as high controls. 16 wells containing KRAS only and 5% DMSO served as low controls. Binding reactions were incubated for 1 hour at 25° C., then Anti-Flag Acceptor and Streptavidin Donor Alpha beads were added at a final concentration of 10 μg/mL for an additional hour at room temperature. Alpha signal was read out on a Perkin Elmer Envision HTS instrument. The percentage inhibition at individual compound concentrations relative to high and low controls was calculated. The data were analyzed by using nonlinear regression to generate IC50 values.
For `Oc1cc(-c2ccc3c(N4C[C@H]5CC[C@@H](C4)N5)nc(OCC4CCCO4)nc3c2)c2ccccc2c1` (stereo partly drawn) [P-0082, 4-(4-((1R,5S)-3,8-diazabicyclo[3.2.1]octan-3-yl)-2-((tetrahydrofuran-2-yl)methoxy)quinazolin-7-yl)naphthalen-2-ol], the IC50 was 0.0001 to 10 µM.
With `CNCCOc1nc(N2C[C@H]3CC[C@@H](C2)N3)c2ccc(-c3cc(O)cc4ccccc34)cc2n1` [P-0083, 4-(4-((1R,5S)-3,8-diazabicyclo[3.2.1]octan-3-yl)-2-(2-(methylamino)ethoxy)quinazolin-7-yl)naphthalen-2-ol] the IC50 was 10 to 100 µM.
`CN1CCOC[C@H]1COc1nc(N2C[C@H]3CC[C@@H](C2)N3)c2ccc(-c3cc(O)cc4ccccc34)cc2n1` [P-0084, 4-(4-((1R,5S)-3,8-diazabicyclo[3.2.1]octan-3-yl)-2-(((S)-4-methylmorpholin-3-yl)methoxy)quinazolin-7-yl)naphthalen-2-ol] was tested, and the IC50 was 0.0001 to 10 µM.
Compound `CN1CCC1COc1nc(N2C[C@H]3CC[C@@H](C2)N3)c2ccc(-c3cc(O)cc4ccccc34)cc2n1` (stereo partly drawn) [P-0086, 4-(4-((1R,5S)-3,8-diazabicyclo[3.2.1]octan-3-yl)-2-((1-methylazetidin-2-yl)methoxy)quinazolin-7-yl)naphthalen-2-ol] has an IC50 of 0.0001 to 10 µM.
`CN1CCC[C@H]1COc1nc(N2C[C@H]3CC[C@@H](C2)N3C(=O)c2n[nH]c(=O)[nH]2)c2ccc(-c3cc(O)cc4ccccc34)cc2n1` [P-0113, 5-((1R,5S)-3-(7-(3-hydroxynaphthalen-1-yl)-2-(((S)-1-methylpyrrolidin-2-yl)methoxy)quinazolin-4-yl)-3,8-diazabicyclo[3.2.1]octane-8-carbonyl)-2,4-dihydro-3H-1,2,4-triazol-3-one] was tested, and the IC50 was 10 to 100 µM.
With `O=C(CO)C1(O)CN(c2nc(N3C[C@H]4CC[C@@H](C3)N4)c3ccc(-c4cc(O)cc5ccccc45)c(F)c3n2)C1` [P-0507, 1-(1-(4-((1R,5S)-3,8-diazabicyclo[3.2.1]octan-3-yl)-8-fluoro-7-(3-hydroxynaphthalen-1-yl)quinazolin-2-yl)-3-hydroxyazetidin-3-yl)-2-hydroxyethan-1-one] the IC50 was 0.0001 to 10 µM.
In the case of `Oc1cc(-c2ccc3c(N4C[C@H]5CC[C@@H](C4)N5)nc(N4CCC5(CNC5)C4)nc3c2F)c2ccccc2c1` [P-0508, 4-(4-((1R,5S)-3,8-diazabicyclo[3.2.1]octan-3-yl)-8-fluoro-2-(2,6-diazaspiro[3.4]octan-6-yl)quinazolin-7-yl)naphthalen-2-ol], the IC50 was 0.0001 to 10 µM.
Work on `Oc1cc(-c2ccc3c(N4C[C@H]5CC[C@@H](C4)N5)nc(N4CC5CCNCC5C4)nc3c2F)c2ccccc2c1` (stereo partly drawn) [P-0509, 4-(4-((1R,5S)-3,8-diazabicyclo[3.2.1]octan-3-yl)-8-fluoro-2-(octahydro-2H-pyrrolo[3,4-c]pyridin-2-yl)quinazolin-7-yl)naphthalen-2-ol] yielded an IC50 of 0.0001 to 10 µM.
Work on `C#Cc1cccc2[nH]cc(-c3ccc4c(N5C[C@H]6CC[C@@H](C5)N6)nc(OCC56CCCN5CCC6)nc4c3F)c12` [P-0513, 4-((1R,5S)-3,8-diazabicyclo[3.2.1]octan-3-yl)-7-(4-ethynyl-1H-indol-3-yl)-8-fluoro-2-((tetrahydro-1H-pyrrolizin-7a(5H)-yl)methoxy)quinazoline] yielded an IC50 of 0.0001 to 10 µM.
`CC(=O)c1c(F)ccc2[nH]cc(-c3ccc4c(N5C[C@H]6CC[C@@H](C5)N6)nc(OCC56CCCN5CCC6)nc4c3F)c12` [P-0514] was tested, and the IC50 was 0.0001 to 10 µM.
`C#Cc1c(F)ccc2[nH]cc(-c3ccc4c(N5C[C@H]6CC[C@@H](C5)N6)nc(OCC56CCCN5CCC6)nc4c3F)c12` [P-0515] was tested, and the IC50 was 0.0001 to 10 µM.
For `CC(CO)(COc1nc(N2C[C@H]3CC[C@@H](C2)N3)c2ccc(-c3cc(O)cc4ccccc34)c(F)c2n1)c1ccccc1` (stereo partly drawn) [P-0516, 4-(4-((1R,5S)-3,8-diazabicyclo[3.2.1]octan-3-yl)-8-fluoro-2-(3-hydroxy-2-methyl-2-phenylpropoxy)quinazolin-7-yl)naphthalen-2-ol], the IC50 was 0.0001 to 10 µM.
Compound `O=C(O)CCc1cccc2[nH]cc(-c3ccc4c(N5C[C@H]6CC[C@@H](C5)N6)nc(OCC56CCCN5CCC6)nc4c3F)c12` [P-0518, 3-(3-(4-((1R,5S)-3,8-diazabicyclo[3.2.1]octan-3-yl)-8-fluoro-2-((tetrahydro-1H-pyrrolizin-7a(5H)-yl)methoxy)quinazolin-7-yl)-1H-indol-4-yl)propanoic acid] has an IC50 of 0.0001 to 10 µM.
`N#CCCc1cccc2[nH]cc(-c3ccc4c(N5C[C@H]6CC[C@@H](C5)N6)nc(OCC56CCCN5CCC6)nc4c3F)c12` [P-0519, 3-(3-(4-((1R,5S)-3,8-diazabicyclo[3.2.1]octan-3-yl)-8-fluoro-2-((tetrahydro-1H-pyrrolizin-7a(5H)-yl)methoxy)quinazolin-7-yl)-1H-indol-4-yl)propanenitrile] was tested, and the IC50 was 0.0001 to 10 µM.
Compound `O=C1NCCN1CCOc1nc(N2C[C@H]3CC[C@@H](C2)N3)c2ccc(-c3cc(O)cc4ccccc34)c(F)c2n1` [P-0520, 1-(2-((4-((1R,5S)-3,8-diazabicyclo[3.2.1]octan-3-yl)-8-fluoro-7-(3-hydroxynaphthalen-1-yl)quinazolin-2-yl)oxy)ethyl)imidazolidin-2-one] has an IC50 of 0.0001 to 10 µM.
In the case of `C#Cc1cccc2cccc(-c3ccc4c(N5C[C@H]6CC[C@@H](C5)N6)nc(OCC56CCCN5CCC6)nc4c3F)c12` [P-0521, 4-((1R,5S)-3,8-diazabicyclo[3.2.1]octan-3-yl)-7-(8-ethynylnaphthalen-1-yl)-8-fluoro-2-((tetrahydro-1H-pyrrolizin-7a(5H)-yl)methoxy)quinazoline], the IC50 was 0.0001 to 10 µM.
Work on `CC(=O)c1cccc2cccc(-c3ccc4c(N5C[C@H]6CC[C@@H](C5)N6)nc(OCC56CCCN5CCC6)nc4c3F)c12` [P-0522, 1-(8-(4-((1R,5S)-3,8-diazabicyclo[3.2.1]octan-3-yl)-8-fluoro-2-((tetrahydro-1H-pyrrolizin-7a(5H)-yl)methoxy)quinazolin-7-yl)naphthalen-1-yl)ethan-1-one] yielded an IC50 of 0.0001 to 10 µM.
Compound `Cc1ccc2[nH]ncc2c1-c1c(Cl)cc2c(N3C[C@H]4CC[C@@H](C3)N4)nc(OCC34CCCN3CCC4)nc2c1F` [P-0523, 4-((1R,5S)-3,8-diazabicyclo[3.2.1]octan-3-yl)-6-chloro-8-fluoro-7-(5-methyl-1H-indazol-4-yl)-2-((tetrahydro-1H-pyrrolizin-7a(5H)-yl)methoxy)quinazoline] has an IC50 of 0.0001 to 10 µM.
With `OCC(CO)COc1nc(N2C[C@H]3CC[C@@H](C2)N3)c2ccc(-c3cc(O)cc4ccccc34)c(F)c2n1` [P-0524, 2-(((4-((1R,5S)-3,8-diazabicyclo[3.2.1]octan-3-yl)-8-fluoro-7-(3-hydroxynaphthalen-1-yl)quinazolin-2-yl)oxy)methyl)propane-1,3-diol] the IC50 was 0.0001 to 10 µM.
Compound `CC(CO)(CO)COc1nc(N2C[C@H]3CC[C@@H](C2)N3)c2ccc(-c3cc(O)cc4ccccc34)c(F)c2n1` [P-0525, 2-(((4-((1R,5S)-3,8-diazabicyclo[3.2.1]octan-3-yl)-8-fluoro-7-(3-hydroxynaphthalen-1-yl)quinazolin-2-yl)oxy)methyl)-2-methylpropane-1,3-diol] has an IC50 of 0.0001 to 10 µM.
Work on `Oc1cc(-c2ccc3c(N4C[C@H]5CC[C@@H](C4)N5)nc(N4CCC5(CCNC5)C4)nc3c2F)c2ccccc2c1` (stereo partly drawn) [P-0526, 4-(4-((1R,5S)-3,8-diazabicyclo[3.2.1]octan-3-yl)-8-fluoro-2-(2,7-diazaspiro[4.4]nonan-2-yl)quinazolin-7-yl)naphthalen-2-ol] yielded an IC50 of 0.0001 to 10 µM.
